In brackets after ≈: the same amount, converted by molar mass.
Columns and labels:
[1] = Compound solubility in water; details: for solubility: Compound Solubility in Water
[2] = biological target: T1, glucocerebrosidase (Gcase) (Homo sapiens, UniProt P04062); assay: Glucocerebrosidase (Gcase) activation assay, 4-methylumbelliferyl-beta-D-glucopyranoside substrate, fluorescence readout; type: biochemical; details: for activation at 0.1 µM / Percent Gcase Activation, 0.1 μM Test Compound: test compound at 0.1 μM; for activation at 0.1 µM: read-out: Percent Gcase Activation, 0.1 μM Test Compound; for activation at 1 µM / Percent Gcase Activation, 1 μM Test Compound: test compound at 1.0 μM; for activation at 1 µM: read-out: Percent Gcase Activation, 1 μM Test Compound
T1 construct: micellar solution containing 10 nM GCase and 100 nM saposin C
T1 sequence (P04062 40-536): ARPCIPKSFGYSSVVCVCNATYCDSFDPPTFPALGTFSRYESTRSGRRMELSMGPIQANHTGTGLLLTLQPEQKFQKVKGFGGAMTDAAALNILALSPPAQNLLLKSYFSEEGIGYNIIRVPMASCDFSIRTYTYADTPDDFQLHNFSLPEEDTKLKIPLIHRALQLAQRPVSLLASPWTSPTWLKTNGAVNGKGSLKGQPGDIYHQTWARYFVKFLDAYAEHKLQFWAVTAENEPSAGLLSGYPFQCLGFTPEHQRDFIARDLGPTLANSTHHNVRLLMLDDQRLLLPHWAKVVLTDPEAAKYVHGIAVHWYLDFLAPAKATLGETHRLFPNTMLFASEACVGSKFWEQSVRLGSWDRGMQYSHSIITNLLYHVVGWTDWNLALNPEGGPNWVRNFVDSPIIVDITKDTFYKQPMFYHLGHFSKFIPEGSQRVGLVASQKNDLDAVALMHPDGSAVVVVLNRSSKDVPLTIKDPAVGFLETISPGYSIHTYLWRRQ
Summary of the method: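 Test compounds are first screened at 1.0 and 0.1 μM final, then titrated in 8 points (3-fold from 5 μM) against human GCase with saposin C in phosphatidylserine/triton X-100 micelles at pH 4.7. Reactions run 15 min at room temperature, with fluorescence read at 365/440 nm.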

| solubility ([1]; water) | activation at 0.1 µM [2] | activation at 1 µM [2] | solubility ([1]; water, in water) | Compound Solubility in Water ([1]; water) | Percent Gcase Activation, 0.1 μM Test Compound [2] | Percent Gcase Activation, 1 μM Test Compound [2] | Compound Solubility in Water ([1]; in water) | Compound |
| --- | --- | --- | --- | --- | --- | --- | --- | --- |
| 0.04 µg/mL (≈ 0.11 µM) | > 20% | > 60% |  |  |  |  |  | CO[C@H]1CC[C@@H](C(C)(C)NC(=O)c2ccn3c(C)cc(Cl)nc23)CC1 [III-76] |
| 29.9 µg/mL (≈ 99.2 µM) | < 10% | < 30% |  |  |  |  |  | COC1CCCCC1NC(=O)c1ccn2c(C)cc(C)nc12 (stereo not shown) [III-98] |
| 0.06 µg/mL (≈ 0.196 µM) | > 20% | > 60% |  |  |  |  |  | Cc1cc(C)n2ccc(C(=O)Nc3ccc4c(c3)CCC4)c2n1 [III-148] |
|  | > 20% | > 60% | 0.2 µg/mL (≈ 0.655 µM) |  |  |  |  | Cc1cc(C)n2ccc(C(=O)Nc3cccc4c3CCC4)c2n1 [III-220] |
|  |  |  |  | 9.8 µg/mL | * (less than 10% Gcase activation) | + (less than 30% Gcase activation) |  | Cc1cc(C)n2ccc(C(=O)NC3CCCC4(CCCCO4)C3)c2n1 (stereo not shown) [III-81] |
|  | < 10% | > 60% | 17.3 µg/mL (≈ 52.5 µM) |  |  |  |  | CCCO[C@H]1CC[C@H](NC(=O)c2ccn3c(C)cc(C)nc23)CC1 [III-290] |
| 0.04 µg/mL (≈ 0.11 µM) | > 20% | > 60% |  |  |  |  |  | C#Cc1ccc(NC(=O)c2ccn3c(C)cc(C)nc23)c(OCCOC)c1 [III-183] |
|  | 10 to 20% | > 60% |  | 2.3 µg/mL |  |  |  | CCCCCO[C@@H]1CC[C@H](NC(=O)c2ccn3c(C)cc(C)nc23)C1 [III-145] |
| 0.01 µg/mL (≈ 0.0292 µM) | 10 to 20% | 30 to 60% |  |  |  |  |  | Cc1cc(C)n2ccc(C(=O)Nc3ccc(-c4ccncc4)cc3)c2n1 [III-11] |
|  |  |  |  | 0.06 µg/mL | *** (greater than 20% Gcase activation) | +++ (Gcase activation greater than 60%) |  | Cc1cc(C)n2ccc(C(=O)Nc3ccc4c(c3)CCC4)c2n1 [III-13] |
|  | < 10% | < 30% | 21.1 µg/mL (≈ 65 µM) |  |  |  |  | Cc1cc(C)n2ccc(C(=O)NC3CCc4nc(C)oc4C3)c2n1 (stereo not shown) [III-284] |
| 8.7 µg/mL (≈ 25.5 µM) | 10 to 20% |  |  |  |  | +++ (Gcase activation greater than 60%) |  | Cc1cc(C)n2ccc(C(=O)NC3CCCC4(CCCCO4)C3)c2n1 (stereo not shown) [III-80] |
| 1.7 µg/mL (≈ 4.2 µM) | > 20% | > 60% |  |  |  |  |  | COCc1cc(C)nc2c(C(=O)NC(C)(C)c3ccc(-c4cocn4)cc3)ccn12 [III-49] |
| < 0.1 µg/mL | > 20% | > 60% |  |  |  |  |  | Cc1cc(C)n2ccc(C(=O)Nc3ccc(Cl)c(COc4cccnc4)c3)c2n1 [III-15] |
| 0.7 µg/mL (≈ 1.97 µM) | > 20% | > 60% |  |  |  |  |  | Cc1cc(C(F)F)n2ccc(C(=O)NC3CCCc4ccccc43)c2n1 (stereo not shown) [III-28] |
| 0.06 µg/mL (≈ 0.148 µM) | > 20% | > 60% |  |  |  |  |  | O=C(Nc1ccc(-c2cocn2)cc1)c1ccn2c(C(F)F)cc(C(F)F)nc12 [III-23] |
|  | < 10% | < 30% | 2 µg/mL (≈ 6.28 µM) |  |  |  |  | Cc1ccn2ccc(C(=O)Nc3ccc(-c4ncco4)cc3)c2n1 [III-265] |
|  |  |  | < 0.1 µg/mL |  | *** (greater than 20% Gcase activation) | +++ (Gcase activation greater than 60%) |  | Cc1cc(C)n2ccc(C(=O)Nc3ccc(Cl)c(COc4cccnc4)c3)c2n1 [III-279] |
| 30.4 µg/mL (≈ 89 µM) | < 10% |  |  |  |  |  |  | Cc1cc(C)n2ccc(C(=O)NC3CCC4(CCCCO4)CC3)c2n1 (stereo not shown) [III-112] |
|  |  |  |  | 1.4 µg/mL | * (less than 10% Gcase activation) | +++ (Gcase activation greater than 60%) |  | Cc1cc(C)n2ccc(C(=O)NC3CCCC34CCCCO4)c2n1 (stereo not shown) [III-139] |
| 3.1 µg/mL (≈ 7.92 µM) | 10 to 20% | > 60% |  |  |  |  |  | Cc1cc(C)n2ccc(C(=O)N[C@H]3CC[C@H](OCC4CC(F)(F)C4)CC3)c2n1 [III-95] |
|  | < 10% | 30 to 60% | 0.1 µg/mL (≈ 0.248 µM) |  |  |  |  | Cc1cc(C)n2ccc(C(=O)Nc3ccc4c(c3)C(Oc3nnc(C)o3)CC4)c2n1 (stereo not shown) [III-221] |
| 0.1 µg/mL (≈ 0.297 µM) | 10 to 20% | > 60% |  |  |  |  |  | Cc1cc(C)n2ccc(C(=O)Nc3ccc4nc(C)sc4c3)c2n1 [III-88] |
|  | < 10% | < 30% | 13.8 µg/mL (≈ 34.7 µM) |  |  |  |  | Cc1cc(C)n2ccc(C(=O)NC3CCCc4ccc(S(C)(=O)=O)cc43)c2n1 (stereo not shown) [III-230] |

| solubility ([1]; water) | activation at 0.1 µM [2] | activation at 1 µM [2] | solubility ([1]; water, in water) | Compound Solubility in Water ([1]; water) | Percent Gcase Activation, 0.1 μM Test Compound [2] | Percent Gcase Activation, 1 μM Test Compound [2] | Compound Solubility in Water ([1]; in water) | Compound |
| --- | --- | --- | --- | --- | --- | --- | --- | --- |
| 25.2 µg/mL (≈ 64 µM) | 10 to 20% | > 60% |  |  |  |  |  | COCCOCc1cc(C)n2ccc(C(=O)N[C@H]3CCCc4ccccc43)c2n1 [III-43] |
|  | > 20% | > 60% | 0.2 µg/mL (≈ 0.655 µM) |  |  |  |  | Cc1cc(C)n2ccc(C(=O)N[C@@H]3CCc4ccccc43)c2n1 [III-218] |
|  | < 10% | < 30% | 28.5 µg/mL (≈ 90.4 µM) |  |  |  |  | Cc1cc(C)n2ccc(C(=O)NC3CCC4OCOC4C3)c2n1 (stereo not shown) [III-229] |
| 1 µg/mL (≈ 3 µM) | < 10% | > 60% |  |  |  |  |  | CC(C)c1ccnc2c(C(=O)N[C@H]3CCCc4ccccc43)ccn12 [III-162] |
| < 0.1 µg/mL | > 20% | > 60% |  |  |  |  |  | CCCCCOc1ccc(NC(=O)c2ccn3c(C)cc(C)nc23)cc1 [III-6] |
|  |  |  |  |  | * (less than 10% Gcase activation) | + (less than 30% Gcase activation) | 20.3 µg/mL | Cc1cc(C)n2ccc(C(=O)NC3CCC(c4ncco4)CC3)c2n1 (stereo not shown) [III-246] |
| 0.3 µg/mL (≈ 0.755 µM) | 10 to 20% | > 60% |  |  |  |  |  | Cc1cc(Br)nc2c(C(=O)Nc3ccc(-c4cocn4)cc3)ccn12 [III-40] |
| 0.4 µg/mL (≈ 1.12 µM) | 10 to 20% | > 60% |  |  |  |  |  | CCCCO[C@H]1CC[C@H](NC(=O)c2ccn3c(C)cc(NC)nc23)CC1 [III-66] |
|  | < 10% | 30 to 60% | 16.7 µg/mL (≈ 56.9 µM) |  |  |  |  | Cc1ccnc2c(C(=O)NC(C)(C)c3ccccc3)ccn12 [III-259] |
| 0.1 µg/mL (≈ 0.289 µM) | > 20% | > 60% |  |  |  |  |  | Cc1cc(C)n2ccc(C(=O)Nc3ccc(-c4ncco4)cc3C)c2n1 [III-150] |
|  | < 10% | > 60% | 0.4 µg/mL (≈ 0.931 µM) |  |  |  |  | CCCc1cc(COC)n2ccc(C(=O)NC3(C)CCOc4cc(F)c(F)cc43)c2n1 (stereo not shown) [III-267] |
|  | 10 to 20% | > 60% | 3.3 µg/mL (≈ 10.3 µM) |  |  |  |  | Cc1cc(C)n2ccc(C(=O)NC3COCc4ccccc43)c2n1 (stereo not shown) [III-210] |
|  | 10 to 20% | > 60% | 11 µg/mL (≈ 32 µM) |  |  |  |  | CC[C@@H](C)O[C@H]1CC[C@H](NC(=O)c2ccn3c(C)cc(C)nc23)CC1 [III-241] |
| 4.9 µg/mL (≈ 14.3 µM) | > 20% | > 60% |  |  |  |  |  | [2H]c1c(C([2H])([2H])[2H])nc2c(C(=O)NC3(C)CCOc4ccccc43)cc([2H])n2c1C([2H])([2H])[2H] (stereo not shown) [III-159] |
| 0.3 µg/mL (≈ 0.686 µM) | < 10% | > 60% |  |  |  |  |  | Cc1cc(C2CC2)n2ccc(C(=O)N[C@H]3CC[C@H](OCCCCC(F)(F)F)CC3)c2n1 [III-47] |
|  |  |  | 0.01 µg/mL (≈ 0.0292 µM) |  | * (less than 10% Gcase activation) |  |  | Cc1cc(C)n2ccc(C(=O)Nc3ccc(-c4ccncc4)cc3)c2n1 [III-277] |
| 12.3 µg/mL (≈ 36 µM) | < 10% | 30 to 60% |  |  |  |  |  | Cc1cc(C)n2ccc(C(=O)NC3CCC(C4CCCO4)CC3)c2n1 (stereo not shown) [III-199] |
| 0.3 µg/mL (≈ 0.939 µM) | > 20% | > 60% |  |  |  |  |  | C#Cc1ccc(NC(=O)c2ccn3c(C)cc(C)nc23)c(OC)c1 [III-129] |
|  | 10 to 20% | > 60% | 28.9 µg/mL (≈ 89.9 µM) |  |  |  |  | Cc1ccnc2c(C(=O)NC3(C)CCOc4ccccc43)ccn12 (stereo not shown) [III-257] |
|  | > 20% | > 60% | 1.8 µg/mL (≈ 5.3 µM) |  |  |  |  | Cc1cc(C)n2ccc(C(=O)NC3CCOc4ccc(F)cc43)c2n1 (stereo not shown) [III-225] |
| 1.7 µg/mL (≈ 4.01 µM) | < 10% | > 60% |  |  |  |  |  | Cc1cc(C2CC2)n2ccc(C(=O)N[C@H]3CC[C@H](OCCCC(F)(F)F)CC3)c2n1 [III-46] |
| 0.5 µg/mL (≈ 1.4 µM) | > 20% | > 60% |  |  |  |  |  | CCCCCOC1CCC(NC(=O)c2ccn3c(C)cc(C)nc23)CC1 (stereo not shown) [III-22] |
| 0.5 µg/mL (≈ 1.38 µM) | > 20% | > 60% |  |  |  |  |  | C#Cc1cccc(C(C)(C)NC(=O)c2ccn3c(C)cc(COC)nc23)c1 [III-64] |
| 0.3 µg/mL (≈ 0.866 µM) | > 20% | > 60% |  |  |  |  |  | CNc1cc(C)n2ccc(C(=O)NC3c4ccccc4C4CC3C4)c2n1 (stereo not shown) [III-70] |
